What all share (assay type): functional, cell-based
The subject of assay [1] is LS180. Put plainly: Cytotoxicity against human LS180 cells assessed as inhibition of cell growth by MTT assay.
Assay [2] concerns H22. Briefly: Cytotoxicity against mouse H22 cells assessed as inhibition of cell growth by MTT assay.
A short description of assay [3]: Antiproliferative activity against rat HSC-T6 cells.
Assay [4] relates to MRC5. Put plainly: Anti-fibrotic activity in human MRC5 cells assessed as inhibition of TGF-beta1 induced total collagen deposition.
Assay [5] has as its system HepG2. Put plainly: Cytotoxicity against human HepG2 cells assessed as inhibition of cell growth by MTT assay.

As for `COC(=O)CCC[C@@H]1[C@H]2CCCN3CCC[C@@H](CN1P(=O)(Oc1ccc(Br)cc1)N(CCCl)CCCl)[C@@H]23` (some centres undefined), the IC50 in assay [1] and in assay [2] was 2100 nM throughout.

In assay [3], `CN(C(=O)CN/C=C/c1ccccc1)[C@@H]1CC(=S)N2C[C@@H]3CCCN4CCC[C@@H]([C@H]34)[C@H]2C1` yielded an IC50 of 62000 nM.

For `O=C1CC(n2ccc3cc(Cl)ccc32)C[C@@H]2[C@H]3CCCN4CCC[C@@H](CN12)[C@@H]34` (some centres undefined), the IC50 in assay [4] was determined as 3300 nM.

With `COC(=O)CCC[C@@H]1[C@H]2CCCN3CCC[C@@H](CN1P(=O)(Oc1ccc(F)cc1)N(CCCl)CCCl)[C@@H]23` (some centres undefined), the IC50 in assay [1] and in assay [2] was 2100 nM each time.

Consider `COC(=O)CCC[C@@H]1[C@H]2CCCN3CCC[C@@H](CN1P(=O)(Oc1cccc(Cl)c1)N(CCCl)CCCl)[C@@H]23` (some centres undefined), for which the IC50 in assay [1] and in assay [2] was 2100 nM each time.

Consider `COC(=O)CCC[C@@H]1[C@H]2CCCN3CCC[C@@H](CN1P(=O)(Oc1ccc4ccccc4c1)N(CCCl)CCCl)[C@@H]23` (some centres undefined), for which the 50% inhibitory concentration (IC50) in assay [1] and in assay [2] was 2100 nM throughout.

As to `COC(=O)CCC[C@@H]1[C@H]2CCCN3CCC[C@@H](CN1P(=O)(Oc1cccc4ccccc14)N(CCCl)CCCl)[C@@H]23` (some centres undefined), the IC50 in assay [1] and in assay [2] was 2100 nM throughout.

On to `O=c1[nH]cc(F)c(=O)[nH]1` [FLUOROURACIL], for which the IC50 in assay [5] amounted to 8020 nM.

In assay [3], `O=C1CCC[C@@H]2[C@H]3CCCN4CCC[C@@H](CN12)[C@@H]34` [MATRINE] had a 50% inhibitory concentration (IC50) of 128000 nM.
